# Assay results taken from the supplement of paper PMC10307832.
# What was measured:
# Assay in all cases: relative viability (nuclei count vs DMSO), 5 days (fraction); higher = more cells survive
# [1] = compound: CN(C/C=C/C1=CC=C(C=C1)Cl)CC2=CC=CC=C2N(CCO)S(=O)(=O)C3=CC=C(C=C3)OC [KN-93] + CC(=O)c1c(C)c2cnc(Nc3ccc(N4CCNCC4)cn3)nc2n(C2CCCC2)c1=O [Palbociclib] (partner 0.5 µM)
# Outline: (§1)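 Medians of duplicate plates are given as relative viability. That measure is the nuclei count in treated wells divided by the count in vehicle wells. Counts were taken on 4× images of lung cancer cell lines in 1536-well plates, 5 days after pin-tool dosing the day after seeding with one drug alone or a fixed anchor-drug dose plus five library-drug doses (not always all listed) in √10 steps.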
# [2] = compound: CN(C/C=C/C1=CC=C(C=C1)Cl)CC2=CC=CC=C2N(CCO)S(=O)(=O)C3=CC=C(C=C3)OC [KN-93] + CC(C)C[C@H](NC(=O)[C@H](Cc1ccccc1)NC(=O)c1cnccn1)B(O)O [Bortezomib] (partner 0.002 µM)
# Outline: as §1
# [3] = compound: CN(C/C=C/C1=CC=C(C=C1)Cl)CC2=CC=CC=C2N(CCO)S(=O)(=O)C3=CC=C(C=C3)OC [KN-93] + COc1cc2c(Oc3ccc(NC(=O)C4(C(=O)Nc5ccc(F)cc5)CC4)cc3F)ccnc2cc1OCCCN1CCOCC1 [Foretinib] (partner 0.25 µM)
# Outline: as §1
# [4] = compound: CN(C/C=C/C1=CC=C(C=C1)Cl)CC2=CC=CC=C2N(CCO)S(=O)(=O)C3=CC=C(C=C3)OC [KN-93] + Nc1nc2[nH]cc(CCc3ccc(C(=O)N[C@@H](CCC(=O)O)C(=O)O)cc3)c2c(=O)[nH]1 [Pemetrexed] (partner 0.2 µM)
# Outline: as §1
# [5] = compound: CN(C/C=C/C1=CC=C(C=C1)Cl)CC2=CC=CC=C2N(CCO)S(=O)(=O)C3=CC=C(C=C3)OC [KN-93] + Nc1ncn([C@H]2C[C@H](O)[C@@H](CO)O2)c(=O)n1 [Decitabine] (partner 2 µM)
# Outline: as §1
Cell Line,relative viability ([1]; first compound 0.08 µM),relative viability ([1]; first compound 0.253 µM),relative viability ([1]; first compound 2.53 µM),relative viability ([1]; first compound 8 µM),relative viability ([2]; first compound 0.08 µM),relative viability ([2]; first compound 0.253 µM),relative viability ([2]; first compound 2.53 µM),relative viability ([2]; first compound 8 µM),relative viability ([3]; first compound 0.08 µM),relative viability ([3]; first compound 0.253 µM),relative viability ([3]; first compound 2.53 µM),relative viability ([3]; first compound 8 µM),relative viability ([4]; first compound 0.08 µM),relative viability ([4]; first compound 0.253 µM),relative viability ([4]; first compound 2.53 µM),relative viability ([4]; first compound 8 µM),relative viability ([5]; first compound 0.08 µM),relative viability ([5]; first compound 0.253 µM),relative viability ([5]; first compound 2.53 µM),relative viability ([5]; first compound 8 µM)
ChaGo-K-1,0.899,1.02,0.946,0.829,1.33,1.18,1.15,0.536,0.866,0.981,0.832,0.669,0.264,0.259,0.246,0.258,0.559,0.528,0.541,0.457
EKVX,0.433,0.34,0.365,0.265,0.81,1.33,1.26,0.389,0.849,0.758,0.911,0.22,0.382,0.346,0.454,0.244,0.332,0.289,0.342,0.319
EMC-BAC-2,0.564,0.53,0.537,0.46,0.908,1.12,1.12,0.58,0.962,1.05,0.938,0.752,0.452,0.484,0.497,0.437,0.996,0.98,0.969,0.693
EPLC-272H,0.321,0.279,0.354,0.346,0.863,1.39,0.982,0.752,0.621,0.762,0.573,0.389,0.422,0.274,0.285,0.211,0.372,0.368,0.383,0.309
